These results are taken from patent US5332733A, “Heterocyclically substituted piperazinoakylbenzoxazine and piperazinoalkylbenzothiazine compounds, processes for preparing them, and medicaments containing them” (Kali-Chemie Pharma GmbH, priority 1990, dated 1994).

The assay concerns the target T1, cyclooxygenase (Mus musculus, UniProt P22437).
T1 construct: A cell suspension containing peritoneal cells from male mice 8-10 weeks old was obtained in a known manner; endogenous in cells; host or cells: mouse peritoneal macrophages (primary, adherent)
T1 sequence (P22437 27-602): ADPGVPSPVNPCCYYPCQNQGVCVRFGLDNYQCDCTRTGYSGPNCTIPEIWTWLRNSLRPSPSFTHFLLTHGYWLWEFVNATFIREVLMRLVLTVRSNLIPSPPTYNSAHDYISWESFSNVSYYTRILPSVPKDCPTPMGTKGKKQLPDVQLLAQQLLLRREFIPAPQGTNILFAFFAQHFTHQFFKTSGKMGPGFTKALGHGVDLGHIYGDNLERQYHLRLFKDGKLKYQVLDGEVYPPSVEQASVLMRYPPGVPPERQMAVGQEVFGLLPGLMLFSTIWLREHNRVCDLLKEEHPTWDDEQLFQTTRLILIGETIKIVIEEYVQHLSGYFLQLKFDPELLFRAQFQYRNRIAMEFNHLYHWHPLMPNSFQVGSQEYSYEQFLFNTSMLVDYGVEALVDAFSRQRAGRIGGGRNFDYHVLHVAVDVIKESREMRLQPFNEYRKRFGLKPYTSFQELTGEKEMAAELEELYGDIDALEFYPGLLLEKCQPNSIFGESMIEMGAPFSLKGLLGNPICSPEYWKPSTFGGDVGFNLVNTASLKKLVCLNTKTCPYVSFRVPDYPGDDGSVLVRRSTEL
Kind of assay: In vitro cyclooxygenase inhibition, release of 6-keto-PGF1α from zymosan-stimulated peritoneal macrophages. As to conditions: zymosan-stimulated mouse peritoneal macrophage cells, 10^-5 mole/l. Format: cell-based. The source says:
5. In Vitro Determination of Cyclooxygenase Inhibition And 5-lipoxygenase Inhibition.
After a cell is activated, arachidonic acid contained in cell membranes is metabolized in two ways. Leucotrienes, inter alia leucotriene C4, are formed due to the action of the enzyme 5-lipoxygenase (=5-LO), and prostanoids are formed due to the action of the enzyme cyclooxygenase (=CO). In in vitro systems these metabolites are secreted from the cell.
To evaluate the cyclooxygenase-inhibiting and 5-lipoxygenase-inhibiting properties of the test substances, their inhibitory activity on the biosynthesis of the arachidonic acid derivatives leucotriene C4 (=LTC4) and 6-keto-prostaglandin F1α (=6-keto-PGF1α) was determined in vitro on mouse peritoneal macrophage cells. For this purpose the LTC4 and 6-keto-PGF1α contents of a mouse peritoneal macrophage cell culture medium were determined by zymosan stimulation as described by Scott et al. (J. Exp. Med. 152 (1980), 324-335) and by Fradin et al., (Prostaglandins, 33 (1987), 579-589).
A cell suspension containing peritoneal cells from male mice 8-10 weeks old was obtained in a known manner. A solution marketed under the designation RPMI 1640 (Manufactured by Gibco) was used as the cell culture medium, to which heparin (10 international units/ml) and antibiotics were added according to the procedure of Bonney et al. (Biochem. J. 176 (1978) 422-433). The cell suspension was adjusted to a cell concentration of 10^6 cells per ml and distributed uniformly on titer dishes containing 24 1-ml titer cells (wells). These were kept for two hours in a humidified incubator filled with air enriched with 7% CO2. Cells not adhering to the titer well walls were then removed by washing. The remaining macrophage cells adhering to the walls were incubated for about 12 hours in a suspension medium to which 0.1% of bovine serum albumin (BSA=Bovine Serum Albumin) was added. The suspension medium was then replaced by a Hanks salt solution (=Hanks Balanced Salt Solution=HBSS) with 10 mmoles of HEPES (=hydroxyethylpiperazinoethanesulfonic acid) to which a 0.1% strength solution of the test substances in aqueous, 1% strength dimethylformamide or only the solvent had been added. After 15 minutes the arachidonic acid metabolism was stimulated by adding […] of zymosan (=glycoprotein mixture isolated from cell walls of beer yeast, Saccharomyces cerevisiae, Manufactured by Sigma Chemical Co., Munich) per titre cell. After 2 hours samples of the respective supernatant liquid in each cell were examined for their 6-keto-PGF1α and LTC4 contents by an enzyme immunoassay (=EIA). This EIA is carried out following the method of Pradelles et al. (Analytical Chem. 57 (1985), 1170-1173). The determination of LTC4 and the determination of 6-keto-PGF1α were each carried out on suitable dilutions of the samples (1:50 to 1:250 for the LTC4 determination and 1:250 to 1:1,250 for the 6-keto-PGF1α determination) in comparison with a comparative scale. To determine the inhibiting effect of a 10^-5 molar concentration of the compounds, the amounts of reference eicosanoid were determined, and the inhibiting effect was calculated therefrom in % inhibition compared to the measurements of the zymosan controls.
On to `Cc1ccnc(N2CCN(CCCCC3Sc4ccccc4NC3=O)CC2)c1` (centres unmarked) [Example 1, 2-{4-[4-(4-methylpyridin-2-yl)-piperazin-1-yl]butyl}-2H-1,4-benzothiazine-3(4H)-one], for which the “% inhibition upon release of 6-keto-PGF1α” value (“% inhibition upon release” below) is on record as 27%.
Consider `Cc1ccnc(N2CCN(CCCCC3Oc4ccccc4NC3=O)CC2)c1` (centres unmarked) [Example 7], for which the “% inhibition upon release” value is given as 17%.
With `Cc1ccnc(N2CCN(CCCC3Oc4ccccc4NC3=O)CC2)c1` (centres unmarked) [Example 9], the “% inhibition upon release” value amounted to 32%.
With `Cc1ccnc(N2CCN(CCCC3Sc4ccccc4NC3=S)CC2)c1` (centres unmarked) [Example 11], the “% inhibition upon release” value amounted to 0%.
In the case of `O=C1Nc2ccccc2SC1CCCN1CCN(c2ccc(Cl)cn2)CC1` (centres unmarked) [Example 15], the “% inhibition upon release” value is recorded as 46%.
